Measurements as given in patent publication US6410041B1, “Culturing cells in presence of amphipathic weak bases and/or cations and multiple drug resistance inhibitor containing reserpine” (priority 1998, dated 2002).
In brackets after ≈: the same amount, converted by molar mass. Where two headings read alike, the source gives them in different places.

Assays:
[1] = tested on: Staphylococcus aureus RN 4222 (WT); assay: MIC determination in wild type S. aureus; type: cell-based
Method: (§1) Determination of minimal inhibitory concentrations (MICs). MICs were determined by serial two-fold dilution of antimicrobials in Mueller-Hinton broth containing chloramphenicol ([…]). […] Around 10^5 cells were inoculated in 1 ml of medium for the test. MICs were read after 18 hours of incubation at 37 C. with aeration. The 50% inhibitory concentration (IC50) was determined by growing cells in microtiter plate wells and reading the optical density after overnight growth at 650 nm.

[2] = tested on: Staphylococcus aureus KLE 820 (norA−); assay: microbe, parasite or virus in culture; type: cell-based; conditions: for Sensitivity of norA- as compared to the wild type: in the absence of reserpine; for effect of addition of reserpine on sensitivity to drugs: norA mutant
Excerpt: Disruption of the norA gene. Chloramphenicol acetyltransferase (CAT) gene was isolated by digesting plasmid pLI50 (10) with Sau3A (New England Biolabs). The CAT gene was cloned into the BamHI site of plasmid pSP72 (Promega) to yield plasmid PCH22. Chromosomal DNA from S. aureus RN4220 was isolated according to the protocol of Qiagen, Inc. Part of the 1050 bp norA gene lacking a 80 bp N-terminus and a 20 bp C-terminus was PCR-amplified from chromosomal DNA using primer A:5′-[…]-[…] and primer B:5′-[…]. This fragment was cloned into the EcoRI/EcoRV site of PCH22 to yield plasmid PCH23. S. aureus were transformed by PCH23 using electroporation (11). Cells were plated on trypticase soy agar (TSA) with chloramphenicol. A transformant colony was picked after 24 hours of incubation at 37 C., regrown, plated on CAM medium and a large colony was picked for further work.
as §1

[3] = tested on: S. aureus; assay: MICs of antimicrobials with small molecule MDR inhibitor (I) and high pH; type: cell-based, Staphylococcus aureus; conditions: for Potentiation factor (pH 7/(pH 9 + I)): pH 7 vs pH 9 + I
Method: as §1

[4] = Staphylococcus aureus, RN 4222 (WT), pH 7.2, read-out: MIC
[5] = Staphylococcus aureus, RN 4222 (WT), pH 9, read-out: MIC
[6] = Staphylococcus aureus, pH 7.2, KLE 820 (norA−), pH 7.2
[7] = Staphylococcus aureus, pH 9, KLE 820 (norA−), pH 9
[8] = Staphylococcus aureus, pH 7, read-out: MIC
[9] = Staphylococcus aureus, pH 9, read-out: MIC
[10] = RN 4222 (WT), +R (20 μg/mL reserpine)
[11] = Staphylococcus aureus, RN 4222 (WT), −R (no reserpine), read-out: MIC
[12] = Staphylococcus aureus, KLE 820 (norA−), −R (no reserpine)
[13] = KLE 820 (norA−), +R (20 μg/mL reserpine)
[14] = RN 4222 (WT), −R (no reserpine)
[15] = KLE 820 (norA−), −R (no reserpine)

Compound: COc1ccc2cc3[n+](cc2c1OC)CCc1cc2c(cc1-3)OCO2 [Berberine]
- MIC [1, 4]: 60 µg/mL
- MIC [1, 5]: 3.75 µg/mL
- MIC [2, 6]: 7.5 µg/mL
- MIC [2, 7]: 0.23 µg/mL
- substrate of NorA ([2]; based on comparison of MIC from wild type and norA−): substrates of NorA
- increase in sensitivity, pH 9 combined with norA mutation ([2]; norA− at pH 9 vs wild type at neutral pH): 260 fold
- Sensitivity norA− at pH 9 vs. WT at pH 7.2 [2]: 260
- increase in sensitivity by norA mutation ([2]; norA− vs wild type): 32 fold
- MIC [3, 8]: 60 µg/mL
- MIC [3, 9]: 7.5 µg/mL
- MIC ([3]; Staphylococcus aureus, MDR inhibitor and high pH, read-out: MIC): 0.012 µg/mL
- substrate of MDR pumps ([3]; cationic plant antimicrobial alkaloids): good substrates of MDR pumps
- MIC ([3]; pH 7 + I (10 μg/mL)): 0.4 µg/mL
- Ratio ([3]; pH 7 vs pH 7 + I): 150
- Potentiation factor (pH 7/(pH 9 + I)) [3]: 4,800
- MIC ([3]; pH 9 + I): 0.0125 µg/mL
- Ratio ([3]; pH 9 vs pH 9 + I): 600
- increase in potency by MDR inhibitor ([3]; proprietary MDR inhibitor (I), Table 3, pH 7): 150 fold

Compound: C[n+]1cc2c3c(ccc2c2ccc4cc5c(cc4c21)OCO5)OCO3 [Sanguinarine]
- MIC [3, 8]: 2.5 µg/mL
- MIC [3, 9]: 1.25 µg/mL
- potentiation by high pH and MDR inhibitor ([3]; high pH combined with MDR inhibitor / MDR inactivation): approximately 100 fold
- MIC ([3]; pH 7 + I (10 μg/mL)): 0.67 µg/mL
- Ratio ([3]; pH 7 vs pH 7 + I): 3.7
- Potentiation factor (pH 7/(pH 9 + I)) [3]: 16.6
- MIC ([3]; pH 9 + I): 0.15 µg/mL
- Ratio ([3]; pH 9 vs pH 9 + I): 8.3

Compound: O=C(O)c1cn(C2CC2)c2cc(N3CCNCC3)c(F)cc2c1=O [Ciprofloxacin]
- MIC [1, 10]: 0.33 µg/mL (≈ 0.996 µM)
- MIC [1, 11]: 0.67 µg/mL (≈ 2.02 µM)

Compound: CC[C@H]1OC(=O)[C@H](C)[C@@H](O[C@H]2C[C@@](C)(OC)[C@@H](O)[C@H](C)O2)[C@H](C)[C@@H](O[C@@H]2O[C@H](C)C[C@H](N(C)C)[C@H]2O)[C@](C)(O)C[C@@H](C)C(=O)[C@H](C)[C@@H](O)[C@]1(C)O [Erythromycin]
- MIC ([1]; Staphylococcus aureus): 0.195 µg/mL (≈ 0.266 µM)
- MIC [2, 12]: 0.195 µg/mL (≈ 0.266 µM)
- Sensitivity of norA- as compared to the wild type [2]: 1

Compound: CCn1cc(C(=O)O)c(=O)c2cc(F)c(N3CCNCC3)cc21 [Norfloxacin]
- MIC [1, 10]: 0.67 µg/mL (≈ 2.1 µM)
- MIC [1, 4]: 1.25 µg/mL (≈ 3.91 µM)
- MIC [1, 5]: 1.25 µg/mL (≈ 3.91 µM)
- MIC [1, 11]: 1.25 µg/mL (≈ 3.91 µM)
- MIC [2, 13]: 0.33 µg/mL (≈ 1.03 µM)
- MIC [2, 12]: 0.33 µg/mL (≈ 1.03 µM)
- MIC [2, 6]: 0.33 µg/mL (≈ 1.03 µM)
- MIC [2, 7]: 0.33 µg/mL (≈ 1.03 µM)
- Sensitivity of norA- as compared to the wild type [2]: 4
- Sensitivity norA− at pH 9 vs. WT at pH 7.2 [2]: 4

Compound: CCC[C@@H]1C[C@@H](C(=O)N[C@@H]([C@H]2O[C@H](SC)[C@H](O)[C@@H](O)[C@H]2O)[C@@H](C)O)N(C)C1 [Lincomycin]
- MIC [1, 11]: 0.6 µg/mL (≈ 1.48 µM)
- Sensitivity of norA- as compared to the wild type [2]: 1

Compound: [Br-].c1ccc([P+](c2ccccc2)(c2ccccc2)c2ccccc2)cc1 [TPP, tetraphenylphosphonium bromide]
- MIC [1, 10]: 7.8 µg/mL
- MIC ([1]; Staphylococcus aureus): 15.6 µg/mL
- MIC ([1]; Staphylococcus aureus, pH 7.2): 15.6 µg/mL
- MIC ([1]; Staphylococcus aureus, pH 9): 0.48 µg/mL
- MIC [2, 13]: 1.9 µg/mL
- MIC [2, 12]: 1.9 µg/mL
- MIC [2, 6]: 1.98 µg/mL
- MIC [2, 7]: 0.12 µg/mL
- Sensitivity of norA- as compared to the wild type [2]: 8
- Sensitivity norA− at pH 9 vs. WT at pH 7.2 [2]: 130

Compound: Benzalkonium Chloride
- MIC ([1]; RN 4222 (WT), pH 7.2): 0.67 µg/mL
- MIC ([1]; RN 4222 (WT), pH 9): 0.08 µg/mL
- effect of pH 9 on sensitivity / effectiveness ([1]; change of pH from 7 to 9): significantly increased the effectiveness
- MIC ([2]; KLE 820 (norA−), pH 7.2): 0.16 µg/mL
- MIC ([2]; KLE 820 (norA−), pH 9): 0.0104 µg/mL
- Sensitivity norA− at pH 9 vs. WT at pH 7.2 [2]: 64
- MIC ([3]; pH 7): 0.67 µg/mL
- MIC ([3]; pH 7 + I (10 μg/mL)): 0.08 µg/mL
- Ratio ([3]; pH 7 vs pH 7 + I): 8.3
- Potentiation factor (pH 7/(pH 9 + I)) [3]: 134
- MIC ([3]; pH 9): 0.16 µg/mL
- MIC ([3]; pH 9 + I): <0.005 µg/mL
- Ratio ([3]; pH 9 vs pH 9 + I): 32

Compound: COc1ccc(C[C@H](N)C(=O)N[C@H]2[C@@H](O)[C@H](n3cnc4c(N(C)C)ncnc43)O[C@@H]2CO)cc1 [Puromycin]
- MIC [1, 4]: 20 µg/mL (≈ 42.4 µM)
- MIC [1, 5]: 2.5 µg/mL (≈ 5.3 µM)
- Sensitivity norA− at pH 9 vs. WT at pH 7.2 [2]: 8

Compound: CN[C@H](CC(C)C)C(=O)N[C@H]1C(=O)N[C@@H](CC(N)=O)C(=O)N[C@H]2C(=O)N[C@H]3C(=O)N[C@H](C(=O)N[C@H](C(=O)O)c4cc(O)cc(O)c4-c4cc3ccc4O)[C@H](O)c3ccc(c(Cl)c3)Oc3cc2cc(c3O[C@@H]2O[C@H](CO)[C@@H](O)[C@H](O)[C@H]2O[C@H]2C[C@](C)(N)[C@H](O)[C@H](C)O2)Oc2ccc(cc2Cl)[C@H]1O [Vancomycin]
- MIC ([1]; Staphylococcus aureus): 1.5 µg/mL (≈ 1.04 µM)
- MIC ([2]; Staphylococcus aureus): 1.5 µg/mL (≈ 1.04 µM)
- Sensitivity of norA- as compared to the wild type [2]: 1

Compound: NC[C@H]1O[C@H](O[C@H]2[C@H](O)[C@@H](O[C@H]3O[C@H](CO)[C@@H](O)[C@H](N)[C@H]3O)[C@H](N)C[C@@H]2N)[C@H](O)[C@@H](O)[C@@H]1O [Kanamycin]
- MIC [1, 11]: 0.33 µg/mL (≈ 0.681 µM)
- Sensitivity of norA- as compared to the wild type [2]: 1

Compound: Gentamycin
- MIC [1, 14]: 0.62 µg/mL
- MIC [2, 15]: 0.62 µg/mL
- Sensitivity of norA- as compared to the wild type [2]: 1

Compound: CN(C)[C@@H]1C(O)=C(C(N)=O)C(=O)[C@@]2(O)C(O)=C3C(=O)c4c(O)cccc4[C@@](C)(O)[C@H]3C[C@@H]12 [Tetracycline]
- MIC [1, 11]: 0.097 µg/mL (≈ 0.218 µM)
- Sensitivity of norA- as compared to the wild type [2]: 1

Compound: CC[n+]1c(-c2ccccc2)c2cc(N)ccc2c2ccc(N)cc21 [EtBr, ethidium bromide]
- MIC [1, 10]: 1.25 µg/mL
- MIC ([1]; Staphylococcus aureus): 5 µg/mL
- MIC ([1]; Staphylococcus aureus, pH 7.2): 5 µg/mL
- MIC ([1]; Staphylococcus aureus, pH 9): 0.078 µg/mL
- MIC [2, 13]: 0.33 µg/mL
- MIC [2, 12]: 0.33 µg/mL
- MIC [2, 6]: 0.312 µg/mL
- MIC [2, 7]: 0.01 µg/mL
- Sensitivity of norA- as compared to the wild type [2]: 16
- Sensitivity norA− at pH 9 vs. WT at pH 7.2 [2]: 500

Compound: Acriflavine
- MIC [1, 10]: 10 µg/mL
- MIC [1, 14]: 20 µg/mL
- MIC [2, 13]: 2.5 µg/mL
- MIC [2, 15]: 2.5 µg/mL
- Sensitivity of norA- as compared to the wild type [2]: 8

Compound: CCC[C@@H]1C[C@@H](C(=O)N[C@@H]([C@H]2O[C@H](SC)[C@H](O)[C@@H](O)[C@H]2O)[C@H](C)Cl)N(C)C1 [Clindamycin]
- MIC [1, 11]: 0.047 µg/mL (≈ 0.111 µM)
- Sensitivity of norA- as compared to the wild type [2]: 1

Compound: COC(=O)[C@H]1[C@H]2C[C@@H]3c4[nH]c5cc(OC)ccc5c4CCN3C[C@H]2C[C@@H](OC(=O)c2cc(OC)c(OC)c(OC)c2)[C@@H]1OC [Reserpine]
- effect of addition of reserpine on sensitivity to drugs ([1]; wild type): increased the sensitivity of the wild type to drugs
- effect of addition of reserpine on sensitivity to drugs [2]: virtually no effect
- effect of addition of reserpine on sensitivity to drugs ([2]; listed as Reserpin): failed to further increase sensitivity

Compound: CC(=O)OCC1=C(C(=O)O)N2C(=O)[C@@H](NC(=O)Cc3cccs3)[C@H]2SC1 [Cephalothin]
- MIC [1, 11]: 0.15 µg/mL (≈ 0.378 µM)
- Sensitivity of norA- as compared to the wild type [2]: 1
